In assay [1] the test system is GFAP+ astrocytes. Description: Morphology and fractal analysis of GFAP+ cells in the hippocampus (Example 2). The class given is in vivo, C57BL/6 male mice. On the procedure: For the IR analysis, for each mouse, three digital images were randomly selected at 40× magnifications in the areas of interest (hippocampus and frontal cortex) (n=5-6/condition). The images were taken using a digital camera attached to a light microscope (Micrometrics, MilesCo Scientific, Princeton, Minn., USA) connected to a camera operated by a commercial software (Micrometrics SE Premium). The determination of the area of the immunolabeling was calculated delimiting the IR areas using the ImageJ software (National Institute of Health, Bethesda, […]., USA). For all analyses, GFAP^+ astrocytes were selected randomly from the frontal cortex and the CA1, CA3 and dentate gyrus regions of the hippocampus and quantified. Using a digital camera on an inverted microscope, black and white images of GFAP^+ astrocytes were obtained and processed with Image J software. Using a 20× objective, cells were chosen randomly in the same area selected for immunostaining, and the binary overlay of a cell was created by thresholding. For all images, a threshold value was established at the level at which the binary overlay entirely enclosed the cell body and projections. All pixels above the threshold value were considered as belonging to the cell images. Finally, the binary silhouette of the whole cell was reduced to its one-pixel outline for estimation of the fractal dimensions with the FracLac 2.5 ImageJ plug-in (Karperien et al., 2013; Karperien and Jelinek, 2015)
Fractal analysis was done on binary images by means of the dilation method (Schaffner and Ghesquiere, 2001). The slope of the regression line (S) is related to the fractal dimension (D) by D=1−S. Each pixel in the cell outline was replaced with a disk of a diameter fluctuating from 3-61 pixels and the area of the widened outline divided by the diameter of structuring element was plotted against this diameter on a log-log scale.
the area of the cell body that is calculated as the two-dimensional cross-sectional area contained within the boundary of the cell body.
The area of the convex polygon formed by connecting the tips of the longest astrocytic processes (convex hull area). Convex hull values indicate the size of the branching field of the astrocyte. The amount of physical space is defined in terms of convex-hull volume, surface area, area, and or perimeter.
Measures heterogeneity and complements fractal dimension analysis in describing structural complexity (Karperien et al., 2013; Karperien and Jelinek, 2015; Schaffner and Ghesquiere, 2001).

Assay [2] has as its system restrained mice. The assay can be described thus: Forced swim test after chronic restraint stress (Example 2). The format is in vivo, C57BL/6 male mice. The conditions noted are these: IN cotinine post-treatment, p<0.01. On the procedure:
Mice between 2-3 months of age after one week of acclimatization were randomly divided into two groups. Stressed mice were subjected to restraint stress. Control (non-restrained) mice were allowed to move freely during this period. After the stress exposure period, mice were divided into three experimental groups: 1) Non-restrained mice treated with vehicle (PBS, pH 7.4) serving as unstressed controls (n=8); 2) Restrained mice (RS) treated with vehicle (n=8); 3), RS mice treated with 24 μl of a cotinine solution (10 mg/ml in PBS, pH 7.4) via intranasal route of administration (n=6). Treatments were administered daily until euthanasia. After two weeks of treatments mice were behaviorally tested and euthanized (FIG. 10) Intranasal delivery was performed as previously described (Hanson and Frey, 2007). Mice at 2-3 months of age were hand-restrained, positioned in a supine position, and administered two 12 μl drops of cotinine solution (10 mg/ml in PBS), or PBS alone, into both nares. Mice were given an extra 12 μl treatment drop if the mouse expelled out the solution. Mice were kept in the supine posture for 5 seconds after delivery to facilitate the delivery. The administration was performed daily until euthanasia. […] Mice were placed in a transparent cylinder filled with water at 25° C. for 5 min and behavior was recorded. […]

For assay [3], the system named is mice subjected to fear conditioning. Description: Novel object recognition after fear conditioning (Example 1, Experiment 3). The conditions noted are these: FC mice, IN post-treatment. The format is in vivo, C57BL/6 mice. As for the experimental part:
Mice were treated via IN 2 hours after fear conditioning and continuously until euthanasia.
Mice (n=5-6/condition) received daily treatments with 1. PBS (phosphate buffer saline, pH 7.4) via intranasal (2×12 μl/nostril), 2. Cotinine dissolved in PBS via intranasal (Cot IN, 10 mg/ml, 2×12 μl/nostril); 3. Cotinine+krill oil both dissolved in PBS via intranasal (Cot IN, 10 mg/ml+KO, 48 mg/ml, 2×12 μl/nostril).
Contextual FC was performed as described. The conditioning chamber used is surrounded by a sound-attenuating box with a camera connected to freeze frame software (MED Associates Inc.), also equipped to provide a background white noise (72 dB). The conditioning chamber (33 cm×20 cm×22 cm) contains in one side a speaker and in the opposite slide has a 24V light. The chamber has a 36-bar insulated shock grid floor. […] Freezing behavior that is defined as the absence of all movement except the one needed for breathing was assessed using the FreezeView Software (MED Associates Inc.).
After a habituation step in the OF arena, each mouse was individually placed in the apparatus containing two identical objects located equidistant to each other (familiarization phase) and left to explore the objects for 5 min. […] The time exploring the two objects was recorded during 5 min. […]

[4] abbreviates: cotinine-treated restrained mice.

For `CN1C(=O)CC[C@H]1c1cccnc1` [Cotinine, (5S)-1-methyl-5-(3-pyridyl) pyrrolidin-2-one], in assay [1] (setting [4]), the “GFAP+ cell area across CA1, CA3 and DG” value was “statistically indistinguishable from nonstressed controls”; the “appearance of GFAP+ astrocytes in hippocampi and frontal cortices” value was “large GFAP^+ cells with longer and more complex arborization”. For the same compound, the “arbor area of astrocytes, DG” value in assay [1] (p<0.001 vs vehicle-treated restrained mice) is “greater astrocytic arborization than vehicle-treated, restrained mice”. Further, in assay [1] (p<0.05), the “fractal dimension (FD) of astrocytes, DG” value is listed as “vehicle-treated, restrained mice had a significant reduction in FD of astrocytes in the DG when compared to cotinine-treated, restrained mice” and the “lacunarity of astrocytes, DG” value is on record as “vehicle-treated, restrained mice had reduced lacunarity of astrocytes relative to both their cotinine-treated, stressed”. Besides, the “arbor area of astrocytes, CA3” value in assay [1] (p<0.05 vs non-stressed controls, p<0.01 vs vehicle-treated restrained) was “significantly more arbor area of astrocytes than non-stressed controls”. The “arbor area of astrocytes, CA1” value in assay [1] (p<0.05 vs non-stressed controls, p=0.075 vs vehicle-treated stressed) is reported as “significantly more arbor area than the non-stressed controls”. In assay [2], the “immobility in the forced swim test” value is given as “significantly lower than PBS-treated restrained mice”. Besides, the “number of entries to the new object area (NOR)” value in assay [3] (Cotinine p<0.05, Cotinine+KO p<0.01) was “higher number of entries to the new object area than PBS-treated FC mice”. For the same compound, the “time exploring the new object (NOR)” value in assay [3] (both p<0.05) is given as “spent more time than PBS-treated FC mice”.

The record behind these values is patent US11260050B2, “Combination of cotinine plus antioxidant for treatment-resistant depression and correction of astrocytes functional deficit induced by depression and other neuropathological” (UNIVERSIDAD SAN SEBASTIAN, priority 2017, dated 2022).
